The text below walks through data of US20090264650A1, “Prophylactic/Therapeutic Agent for Diabetes” (priority 2005, published 2009).

This test addresses T1, 11βHSD1 (Homo sapiens, UniProt P28845).
T1 construct: made in house; host or cells: Sf-21 insect cells infected with recombinant baculovirus BAC-HHSD1 (pFASTBAC1-derived pFB-hHSD1); microsome fraction
As to the kind of experiment: Determination of 11βHSD1 inhibitory activity (microsome fraction, cortisone to cortisole, competitive ELISA). The settings on record: microsome fraction of Reference Example 2a; 500 nM cortisone, 400 μM NADPH substrate solution; room temperature 60 min. In kind it is biochemical. The method, then:
The enzyme reaction was performed in a polypropylene 96-well plate (Corning). The microsome fraction obtained in Reference Example 2a was diluted with a buffer (30 mM Tris-HCl, 1 mM EDTA, 0.1% BSA, pH 7.2) to a concentration of 100 μg/ml. A solution (2.5 μl) of the test compound in dimethyl sulfoxide was added to the obtained diluted solution (22.5 μl) and the mixture was incubated at room temperature for 5 min. A substrate solution (500 nM cortisone, 400 μM NADPH) (25 μl) was added to the obtained suspension, allowed to react at room temperature for 60 min and the reaction was quenched by the addition of 2 mM 18-β-glycyrrhetinic acid (Sigma Ltd.) solution (5 μl). The produced cortisole was quantified by the following competitive ELISA.
Anti-mouse IgG antibody (Chemicon) was suspended in 100 mM sodium phosphate buffer (pH 9.0) to a concentration of 5 μg/ml. The obtained suspension (100 μl) was added to a 96-well black plate (Maxisorp, Nunc), and incubated overnight at 4° C. to immobilize a first antibody. The plate was washed with PBS containing 0.05% Tween20 (Bio-Rad), 30% block ace (Yukijirushi) ([…]) diluted with PBS was added. After blocking at room temperature for 1 hr or more, the plate was washed with PBS containing 0.05% Tween20. Anti-cortisole antibody (assay design) (100 μl) diluted 4-fold with a buffer (30 mM Tris-HCl, 1 mM EDTA, pH 7.2) was added to the plate, and the plate was incubated at room temperature for 90 min. The plate was washed 4 times with PBS containing 0.05% Tween20, the enzyme reaction mixture (25 μl) and alkaline phosphatase conjugated cortisole (assay design) (25 μl) were added, and the plate was incubated at room temperature for 120 min. The plate was washed 4 times with PBS containing 0.05% Tween20, a luminescence substrate for alkaline phosphatase, Immun star (Enhancer plus, Bio-Rad) (50 μl) was added. The plate was incubated at room temperature for 10 min and the level of luminescence was measured by Arvo malfi label counter (Wallac). The concentration (IC50 value) of the test compound necessary for inhibiting the 11βHSD1 activity by 50% was calculated by PRISM2.01 (Graphpad Software).
For orientation: In an ELISA, binding on a coated surface is turned into a signal by an enzyme label.

T1 sequence (P28845 whole entry): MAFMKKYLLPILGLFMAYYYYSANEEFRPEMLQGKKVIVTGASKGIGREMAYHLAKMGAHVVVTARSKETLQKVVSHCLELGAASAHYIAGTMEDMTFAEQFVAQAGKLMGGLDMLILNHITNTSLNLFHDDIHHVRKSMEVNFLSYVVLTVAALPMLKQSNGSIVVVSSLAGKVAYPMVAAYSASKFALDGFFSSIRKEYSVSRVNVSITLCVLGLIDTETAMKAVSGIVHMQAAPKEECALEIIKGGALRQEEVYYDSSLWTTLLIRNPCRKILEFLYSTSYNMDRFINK

As for `CC1(O)CCC(N2CCC(Cc3c(Cl)cccc3Cl)C2=O)CC1` (single isomer, unassigned) [Example 38A, 3-(2,6-dichlorobenzyl)-1-(4-hydroxy-4-methylcyclohexyl)pyrrolidin-2-one], the IC50 (commonly the concentration needed to halve the response being measured) is 0.026 µM.
On to `COc1ccccc1CC1CCN(C2CCc3ccccc32)C1=O` (single isomer, unassigned) [Example 66A, 1-(2,3-dihydro-1H-inden-1-yl)-3-(2-methoxybenzyl)pyrrolidin-2-one], for which the IC50 turned out to be 0.056 µM.
Consider `CC1(O)CCC(N2CCC(Cc3ccc(Cl)cc3Cl)C2=O)CC1` (single isomer, unassigned) [Example 412A, 3-(2,4-dichlorobenzyl)-1-(4-hydroxy-4-methylcyclohexyl)pyrrolidin-2-one], for which the IC50 was 0.43 µM.
`CC1(O)CCC(N2CCC(Cc3ccc(Cl)cc3Cl)C2=O)CC1` (single isomer, unassigned) [Example 413A, 3-(2,4-dichlorobenzyl)-1-(4-hydroxy-4-methylcyclohexyl)pyrrolidin-2-one] registered an IC50 of 0.029 µM.
Next, `CC1(O)CCC(N2CCC(Cc3ccc(OCC(=O)NCc4ccc(C(F)(F)F)cc4)cc3Cl)C2=O)CC1` (single isomer, unassigned) [Example 602A, 2-(3-chloro-4-{[1-(4-hydroxy-4-methylcyclohexyl)-2-oxopyrrolidin-3-yl]methyl}phenoxy)-N-[4-(trifluoromethyl)benzyl]acetamide]: 0.026 µM; `CC1(O)CCC(N2CCC(Cc3ccc(OCC(=O)NCc4ccc(C(F)(F)F)cc4)cc3Cl)C2=O)CC1` (single isomer, unassigned) [Example 603A, 2-(3-chloro-4-{[1-(4-hydroxy-4-methylcyclohexyl)-2-oxopyrrolidin-3-yl]methyl}phenoxy)-N-[4-(trifluoromethyl)benzyl]acetamide]: 0.098 µM.
Take `Cc1ccccc1CN1CCCN(Cc2c(Cl)cccc2Cl)C1=O` [Example 2D, 1-(2,6-dichlorobenzyl)-3-(2-methylbenzyl)tetrahydropyrimidin-2(1H)-one]: the IC50 was found to be 0.13 µM.
In the case of `Cc1ccccc1CN1CCCC(Cc2c(Cl)cccc2Cl)C1=O` (stereo not shown) [Example 5C, 3-(2,6-dichlorobenzyl)-1-(2-methylbenzyl)piperidin-2-one], the IC50 was 0.11 µM.
Take `O=C1C(Cc2c(Cl)cccc2Cl)CCN1C1CCCCC1` (stereo not shown) [Example 9A, 1-cyclohexyl-3-(2,6-dichlorobenzyl)pyrrolidin-2-one]: the IC50 stood at 0.0079 µM.
Molecule `Cc1ccccc1CN1C(=O)N(Cc2c(Cl)cccc2Cl)CC1(C)O` (stereo not shown) [Example 32B, 1-(2,6-dichlorobenzyl)-4-hydroxy-4-methyl-3-(2-methylbenzyl)imidazolidin-2-one] registered an IC50 of 0.053 µM.
`CN(Cc1c(Cl)cccc1Cl)C1CCN(C2CCCCC2)C1=O` (stereo not shown) [Example 94A, 1-cyclohexyl-3-[N-(2,6-dichlorobenzyl)N-methylamino]pyrrolidin-2-one] showed an IC50 of 0.085 µM.
In the case of `O=C(Nc1ccc(CO)cc1)Nc1ccc(CC2CCN(C3C4CC5CC3CC(O)(C5)C4)C2=O)c(Cl)c1` (stereo not shown) [Example 468A, N-(3-chloro-4-{[1-(5-hydroxy-2-adamantyl)-2-oxopyrrolidin-3-yl]methyl}phenyl)-N′-[4-(hydroxymethyl)phenyl]urea], the IC50 amounted to 0.019 µM.
On to `CS(=O)(=O)Nc1cccc(-c2ccc(CC3CCN(C4C5CC6CC4CC(O)(C6)C5)C3=O)c(Cl)c2)c1` (stereo not shown) [Example 470A, N-(3′-chloro-4′-{[1-(5-hydroxy-2-adamantyl)-2-oxopyrrolidin-3-yl]methyl}biphenyl-3-yl)methanesulfonamide], for which the IC50 came to 0.037 µM.
For the molecule `O=C1N(Cc2ccc(C(F)(F)F)cc2)CCN1c1ccc(CC2CCN(C3C4CC5CC3CC(O)(C5)C4)C2=O)c(Cl)c1` (stereo not shown) [Example 510A, 1-(3-chloro-4-{[1-(5-hydroxy-2-adamantyl)-2-oxopyrrolidin-3-yl]methyl}phenyl)-3-[4-(trifluoromethyl)benzyl]imidazolidin-2-one], the IC50 was 0.0099 µM.
The molecule `CC1(O)CCC(N2CCC(Cc3ccc(OCc4nc(-c5ccc(F)cc5)no4)cc3Cl)C2=O)CC1` (stereo not shown) [Example 619A, 3-(2-chloro-4-{[3-(4-fluorophenyl)-1,2,4-oxadiazol-5-yl]methoxy}benzyl)-1-(4-hydroxy-4-methylcyclohexyl)pyrrolidin-2-one] gave an IC50 of 0.046 µM.
Turning to `CC1(O)CCC(N2CCC(Cc3ccc(-c4cccc(CO)c4)cc3Cl)C2=O)CC1` (stereo not shown) [Example 654A, 3-{[3-chloro-3′-(hydroxymethyl)biphenyl-4-yl]methyl}-1-(4-hydroxy-4-methylcyclohexyl)pyrrolidin-2-one], the IC50 was 0.15 µM.
